Measured values from US11000491B2, “Amino-aryl-benzamide compounds and methods of use thereof” (HEPANOVA, INC., priority 2017, dated 2021).
Entries after “also recorded” stand apart in the source; their conditions may differ. Read-outs that look alike come from different tables or passages of the source.

Assays:
[1] = tested on: high fat diet-induced NAFLD/NASH mice; assay: High fat diet-induced NAFLD/NASH mice; format: in vivo, C57BL/6 mice
Method: FIG. 11. Study design of in vivo HPN-01 effects on high fat diet-induced NAFLD/NASH mice.
Eight-week old C57BL/6 mice were divided into a test group and a control group. The control group mice were fed with normal chow diet (NCD) for 24 weeks. The test group was further divided into a preventing group and a treatment group. In the preventing group, mice were fed with high-fat diet (HFD) and simultaneously treated with 25 mg/kg of HPN-01 or vehicle daily for 16 weeks, after which time the mice were euthanized and evaluated for NAFLD/NASH development. In the treatment group, mice were fed with HFD for 12 weeks to stimulate the development of NAFLD/NASH, and then treated with 25 mg/kg of HPN-01 or vehicle daily for additional 12 weeks. The mice were then euthanized and evaluated for the presence of NAFLD/NASH. This study design is illustrated in FIG. 11.
To determine the effect of HPN-01 on various fat-related molecules in the liver of mice from the study in Example 8, liver tissues were isolated and prepared and the levels of hepatic triglyceride and glycogen were measured.
The livers of mice from the study of Example 8 were also analysed for their levels of cholesterol, SREBP-1, and fatty acid synthesis. […] Likewise, SREBP-1 expression in HFD-fed mice with HPN-01 treatment was 0.52±0.06, a reduction of about 48% when compared with HFD-fed mice receiving only vehicle (FIG. 15B).
Plasma cholesterol and triglyceride levels were determined in blood taken from mice in the study described in Example 8.
Liver tissues from mice in the study of Example 8 were analysed for the expression level of inflammatory cytokines.
Liver tissues from mice in the study of Example 8 were analysed for the expression levels of hepatic molecules involved in the formation of fibrotic scarring.
Liver tissues were then analysed to determine the levels of various pro-fibrotic cytokines. […] The expression level of TIMP2, a fibrosis suppressor, was increased in the presence of HPN-01.

[2] = Cytotoxicity, inhibition of cell growth; format: cell-based; details: human, read-out: CC50 (cytotoxic concentration that will kill half of the treated cells)
Method: FIGS. 10A and 10B. Inhibition of hepatocyte growth by HPN-01.
Huh7 cells and primary human hepatocytes were cultured in the presence of varying concentrations of HPN-01, and the inhibition of cell growth was measured.

SREBP-2 = SREBP-2 expression in cultured primary human hepatocytes; format: cell-based; details: Hepatocyte
How it was run: (§1)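 Primary human hepatocytes in culture exposed to a range of HPN-01 derivative concentrations; SREBP-1 and SREBP-2 mRNA expression then measured to assess inhibition.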

Huh7 cells [3] = assay: Lipid droplet (LD) formation in Huh7 cells, BODIPY 493/503 staining, confocal microscopy; format: cell-based; details: Homo sapiens, Huh-7, 24 h
Method: FIGS. 5A-5D. Effect of HPN-01 on hepatocellular lipid droplet (LD) biogenesis. Heptoma cell line Huh7 cells were treated with various amounts of HPN-01 for 24 hours, either in the absence or in the presence of 400 μM oleic acid, which triggers LD formation, after which intracellular LD contents were observed using a Zeiss confocal microscope with fluorescence. FIG. 5A) Fluorescent analysis of untreated (DMSO) or HPN-01-treated cells in the absence (Top panels) and presence (Bottom panels) of oleic acid. Cellular LD contents were stained using BODIPY 493/503 and are shown in green. Blue indicates cell nuclei. FIG. 5B) LD size of treated and untreated (DMSO) cells, in the presence or absence of oleic acid. FIG. 5C) Mean fluorescence intensity of untreated (DMSO) and treated cells in the absence of oleic acid. FIG. 5D) Mean fluorescence intensity of untreated (DMSO) and treated cells in the presence of oleic acid.
Heptoma cell line Huh7 cells were treated with various amounts of HPN-01 for 24 h, either in the absence or in the presence of 400 μM oleic acid, and observed under a Zeiss confocal microscope. […] LD contents (stained with BODIPY 493/503, in green) were observed under a Zeiss confocal microscope. FIG. 5A. Blue indicates cell nuclei. FIG. 5B. LD size. FIG. 5C. Mean fluorescence intensity. Values were measured using ZEN software by counting 300 cells under each treatment condition.

SREBP-1 = SREBP-1 expression in cultured primary human hepatocytes; format: cell-based; details: Hepatocyte
How it was run: as §1

Huh7 cells [4] = assay: LD content in Huh7 cells pre-treated with insulin, Oil-Red-O staining, absorbance OD 540 nm; format: cell-based; details: Homo sapiens, Huh-7; Huh7 cells pre-treated with 1 mM insulin, 24 h; read-out: LD contents IC50 (Oil-Red-O, OD 540 nm)
How it was run: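 Huh7 cells, mock-treated or pre-treated with 1 mM insulin, were then exposed to compound at the indicated amounts. Lipid droplets stained with Oil Red O and quantified by absorbance at OD 540 nm.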

[5] = HFD-fed mice with HPN-01 treatment
[6] = HFD-fed mice, 25 mg/kg daily, 25 mg/kg
[7] = HFD-fed mice, preventing group (25 mg/kg daily, 16 weeks)
[8] = HFD-fed mice, treatment group (HFD 12 weeks, then 25 mg/kg daily 12 weeks)

NC(=O)c1cc(-c2ccc(Cl)cc2)cc(-c2ccc(S(N)(=O)=O)cc2)c1N [HPN-01, 2-amino-3-(p-sulfonamidophenyl)-5-(p-chlorophenyl) benzamide]
plasma cholesterol level ([1]; HFD-fed mice receiving HPN-01): 43.0 ± 15.5 mg/dL | plasma triglyceride level ([1]; HFD-fed mice receiving HPN-01): 31.2 ± 4.5 mg/dL | hepatic SREBP-1 expression (relative) [1, 5]: 0.52±0.06 | hepatic cholesterol level [1, 5]: 3.9±1.1 mg per g tissue | hepatic fatty acid synthesis [1, 5]: 13.2±2.8 DPMs/mg | size and color of liver ([1]; HFD-fed mice, 25 mg/kg daily): very similar to the control mice | LD deposition and inflammatory infiltration in liver sections (H&E, Oil-red-O) ([1]; HFD-fed mice, 25 mg/kg daily, preventing and treatment groups): substantially diminished | body weight increase / HFD-triggered obesity [1, 6]: significantly remitted; also recorded: reversed HFD-triggered obesity | fat deposition / visceral fat accumulation [1, 6]: significantly remitted; also recorded: significantly alleviated visceral fat accumulation | liver glycogen level [1, 7]: 8.4 ± 1.6 µg/mg | liver triglyceride level [1, 7]: 67.2 ± 28.3 mg/g | liver glycogen level [1, 8]: 13.3 ± 3.5 µg/mg | liver triglyceride level [1, 8]: 75.5 ± 19.8 mg/g | decrease of hepatic cholesterol vs vehicle ([1]; HFD-fed mice, vs vehicle only): about 1.92 fold | decrease of hepatic fatty acid synthesis vs vehicle ([1]; HFD-fed mice, vs vehicle only): about 3.18 fold | decrease of plasma cholesterol vs vehicle ([1]; HFD-fed mice, vs vehicle only): 2.75 fold | decrease of plasma triglyceride vs vehicle ([1]; HFD-fed mice, vs vehicle only): 1.87 fold | reduction of hepatic SREBP-1 expression vs vehicle ([1]; HFD-fed mice, vs vehicle only): about 48% | HFD induction of ITGA2, LOX, TIMP1, IGFBP1, IGFBP2, IGFBP3, IGFBP5, IGFBP6 and FGF-21 in liver ([1]; liver tissue mRNA, HFD-fed mice): significantly suppressed | HFD induction of hepatic expression of ICAM1(CD54), IL-1B, IL-8, MCP-1, THF-α and LIF ([1]; liver tissue, HFD-fed mice): substantially abrogated; also recorded: suppressed | expression level of TIMP2 (fibrosis suppressor) in liver ([1]; liver tissue, HFD-fed mice): increased | CC50 ([2]; Huh7 cells): 54.3 µM | CC50 ([2]; primary human hepatocytes): 77.2 µM | IC50 (SREBP-2): 3.43 µM | IC50 (Huh7 cells [3]; with oleic acid stimulation (400 μM)): 0.27 µM | IC50 (Huh7 cells [3]; without oleic acid pre-treatment): 0.46 µM | IC50 (SREBP-1): 1.71 µM | IC50 (Huh7 cells [4]): 0.25 µM
